Experimental data published in patent EP4745137A1 (Gluetacs Therapeutics (Shanghai) Co., Ltd., priority 2023, dated 2025).

Assays:
Format in all cases: cell-based
Settings in all cases: 24 hours of compound treatment, 50 nM and 500 nM tested (concentration behind the class not stated)
WEE1 = molecular target: T1, WEE1 (Homo sapiens, UniProt P30291+Q96SW2); experiment: Western-blot assay of substrate protein degradation in hPBMCs, WEE1
T1 construct: endogenous in cells; host or cells: hPBMCs (Milecell Biotechnologies)

IKZF1 = molecular target: T2, IKZF1 (Homo sapiens, UniProt Q13422+Q96SW2); experiment: Western-blot assay of substrate protein degradation in hPBMCs, IKZF1
T2 construct: endogenous in cells; host or cells: hPBMCs (Milecell Biotechnologies)

IKZF2 = molecular target: T3, IKZF2 (Homo sapiens, UniProt Q96SW2+Q9UKS7); experiment: Western-blot assay of substrate protein degradation in hPBMCs, IKZF2
T3 construct: endogenous in cells; host or cells: hPBMCs (Milecell Biotechnologies)

IKZF3 = molecular target: T4, IKZF3 (Homo sapiens, UniProt Q96SW2+Q9UKT9); experiment: Western-blot assay of substrate protein degradation in hPBMCs, IKZF3
T4 construct: endogenous in cells; host or cells: hPBMCs (Milecell Biotechnologies)

CK1α = molecular target: T5, CK1α (Homo sapiens, UniProt P48729+Q96SW2); experiment: Western-blot assay of substrate protein degradation in hPBMCs, CK1α
T5 construct: endogenous in cells; host or cells: hPBMCs (Milecell Biotechnologies)

GSPT1 = molecular target: T6, GSPT1 (Homo sapiens, UniProt P15170+Q96SW2); experiment: Western-blot assay of substrate protein degradation in hPBMCs, GSPT1
T6 construct: endogenous in cells; host or cells: hPBMCs (Milecell Biotechnologies)
T6 sequence (P15170 whole entry): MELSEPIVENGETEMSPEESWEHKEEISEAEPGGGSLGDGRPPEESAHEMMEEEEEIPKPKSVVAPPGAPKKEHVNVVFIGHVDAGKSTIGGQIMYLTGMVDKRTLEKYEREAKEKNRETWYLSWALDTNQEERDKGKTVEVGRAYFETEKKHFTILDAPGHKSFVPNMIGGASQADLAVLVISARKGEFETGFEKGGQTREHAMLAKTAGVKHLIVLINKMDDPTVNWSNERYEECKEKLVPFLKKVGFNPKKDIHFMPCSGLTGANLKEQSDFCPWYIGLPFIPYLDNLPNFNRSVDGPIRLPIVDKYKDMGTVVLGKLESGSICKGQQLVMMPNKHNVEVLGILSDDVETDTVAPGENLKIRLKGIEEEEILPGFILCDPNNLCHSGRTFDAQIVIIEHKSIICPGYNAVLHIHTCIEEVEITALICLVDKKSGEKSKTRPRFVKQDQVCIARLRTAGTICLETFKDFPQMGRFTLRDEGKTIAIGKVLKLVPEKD
T6 sequence (Q96SW2 whole entry): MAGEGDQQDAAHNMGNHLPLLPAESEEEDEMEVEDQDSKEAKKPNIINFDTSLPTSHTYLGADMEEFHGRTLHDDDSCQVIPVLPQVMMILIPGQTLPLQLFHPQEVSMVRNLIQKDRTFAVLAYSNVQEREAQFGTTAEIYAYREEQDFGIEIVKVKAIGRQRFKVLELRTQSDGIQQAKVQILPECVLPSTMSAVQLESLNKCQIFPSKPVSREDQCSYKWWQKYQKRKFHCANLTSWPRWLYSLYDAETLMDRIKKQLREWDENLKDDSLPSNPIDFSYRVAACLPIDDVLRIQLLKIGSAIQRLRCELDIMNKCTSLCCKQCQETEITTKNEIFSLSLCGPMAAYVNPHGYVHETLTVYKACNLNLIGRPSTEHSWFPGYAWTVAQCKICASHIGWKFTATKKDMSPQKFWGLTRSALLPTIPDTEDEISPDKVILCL
T6 sequence (Q16531 whole entry partner): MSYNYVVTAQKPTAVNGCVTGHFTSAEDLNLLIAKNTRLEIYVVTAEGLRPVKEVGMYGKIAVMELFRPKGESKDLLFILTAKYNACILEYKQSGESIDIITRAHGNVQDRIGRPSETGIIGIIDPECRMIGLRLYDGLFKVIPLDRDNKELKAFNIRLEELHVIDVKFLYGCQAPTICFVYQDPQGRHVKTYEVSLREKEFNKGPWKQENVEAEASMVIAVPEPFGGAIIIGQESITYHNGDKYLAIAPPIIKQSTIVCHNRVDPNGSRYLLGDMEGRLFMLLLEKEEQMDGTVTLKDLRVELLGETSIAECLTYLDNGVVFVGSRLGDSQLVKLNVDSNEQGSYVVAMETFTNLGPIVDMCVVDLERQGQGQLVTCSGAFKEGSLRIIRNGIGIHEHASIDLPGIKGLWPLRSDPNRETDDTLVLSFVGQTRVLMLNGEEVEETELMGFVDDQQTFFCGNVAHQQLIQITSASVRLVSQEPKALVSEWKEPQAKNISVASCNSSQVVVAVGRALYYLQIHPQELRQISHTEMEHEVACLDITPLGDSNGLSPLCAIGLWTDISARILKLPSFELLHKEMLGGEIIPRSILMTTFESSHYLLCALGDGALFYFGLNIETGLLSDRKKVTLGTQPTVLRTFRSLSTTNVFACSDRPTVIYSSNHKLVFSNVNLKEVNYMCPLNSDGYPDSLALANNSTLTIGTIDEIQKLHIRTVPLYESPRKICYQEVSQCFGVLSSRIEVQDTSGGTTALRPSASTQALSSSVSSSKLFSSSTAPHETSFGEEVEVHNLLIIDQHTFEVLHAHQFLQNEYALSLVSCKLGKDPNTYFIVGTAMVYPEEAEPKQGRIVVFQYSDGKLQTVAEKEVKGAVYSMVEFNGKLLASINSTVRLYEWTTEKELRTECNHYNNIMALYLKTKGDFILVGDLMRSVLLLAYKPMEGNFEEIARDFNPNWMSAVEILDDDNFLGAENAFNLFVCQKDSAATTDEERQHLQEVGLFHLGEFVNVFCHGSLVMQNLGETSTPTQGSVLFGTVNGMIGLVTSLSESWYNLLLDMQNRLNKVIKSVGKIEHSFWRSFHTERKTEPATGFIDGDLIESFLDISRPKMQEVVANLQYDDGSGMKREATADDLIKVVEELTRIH

T2 sequence (Q13422 whole entry): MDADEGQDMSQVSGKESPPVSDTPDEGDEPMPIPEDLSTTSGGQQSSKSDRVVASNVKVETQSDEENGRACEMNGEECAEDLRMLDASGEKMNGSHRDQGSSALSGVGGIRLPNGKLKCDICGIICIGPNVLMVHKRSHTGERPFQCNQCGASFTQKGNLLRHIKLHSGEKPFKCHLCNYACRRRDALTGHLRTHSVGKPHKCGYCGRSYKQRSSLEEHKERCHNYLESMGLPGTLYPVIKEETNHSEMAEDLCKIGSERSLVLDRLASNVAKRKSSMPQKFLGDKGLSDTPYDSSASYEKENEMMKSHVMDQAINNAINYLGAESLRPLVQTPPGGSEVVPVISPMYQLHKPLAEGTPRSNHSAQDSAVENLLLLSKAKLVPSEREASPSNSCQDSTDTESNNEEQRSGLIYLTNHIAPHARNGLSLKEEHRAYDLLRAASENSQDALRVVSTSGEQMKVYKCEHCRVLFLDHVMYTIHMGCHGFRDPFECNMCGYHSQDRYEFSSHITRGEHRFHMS
T2 sequence (Q96SW2 whole entry): as the sequence (Q96SW2 whole entry) above
T2 sequence (Q16531 whole entry partner): as the sequence (Q16531 whole entry partner) above
T4 sequence (Q9UKT9 whole entry): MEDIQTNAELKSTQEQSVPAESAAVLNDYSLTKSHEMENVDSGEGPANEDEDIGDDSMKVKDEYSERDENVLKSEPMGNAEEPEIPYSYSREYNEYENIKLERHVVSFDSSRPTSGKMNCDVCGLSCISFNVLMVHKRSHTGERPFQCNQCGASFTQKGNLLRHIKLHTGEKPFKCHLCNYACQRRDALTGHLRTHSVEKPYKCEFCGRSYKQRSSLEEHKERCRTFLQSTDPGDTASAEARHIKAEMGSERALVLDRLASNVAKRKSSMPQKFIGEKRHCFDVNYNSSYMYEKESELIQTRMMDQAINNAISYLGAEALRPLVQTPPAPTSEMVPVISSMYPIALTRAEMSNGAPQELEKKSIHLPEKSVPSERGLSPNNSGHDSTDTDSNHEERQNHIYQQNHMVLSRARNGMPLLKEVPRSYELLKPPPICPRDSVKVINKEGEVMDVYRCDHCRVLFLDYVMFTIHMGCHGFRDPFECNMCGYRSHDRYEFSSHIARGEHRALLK
T4 sequence (Q96SW2 whole entry): as the sequence (Q96SW2 whole entry) above
T4 sequence (Q16531 whole entry partner): as the sequence (Q16531 whole entry partner) above
T1 sequence (P30291 whole entry): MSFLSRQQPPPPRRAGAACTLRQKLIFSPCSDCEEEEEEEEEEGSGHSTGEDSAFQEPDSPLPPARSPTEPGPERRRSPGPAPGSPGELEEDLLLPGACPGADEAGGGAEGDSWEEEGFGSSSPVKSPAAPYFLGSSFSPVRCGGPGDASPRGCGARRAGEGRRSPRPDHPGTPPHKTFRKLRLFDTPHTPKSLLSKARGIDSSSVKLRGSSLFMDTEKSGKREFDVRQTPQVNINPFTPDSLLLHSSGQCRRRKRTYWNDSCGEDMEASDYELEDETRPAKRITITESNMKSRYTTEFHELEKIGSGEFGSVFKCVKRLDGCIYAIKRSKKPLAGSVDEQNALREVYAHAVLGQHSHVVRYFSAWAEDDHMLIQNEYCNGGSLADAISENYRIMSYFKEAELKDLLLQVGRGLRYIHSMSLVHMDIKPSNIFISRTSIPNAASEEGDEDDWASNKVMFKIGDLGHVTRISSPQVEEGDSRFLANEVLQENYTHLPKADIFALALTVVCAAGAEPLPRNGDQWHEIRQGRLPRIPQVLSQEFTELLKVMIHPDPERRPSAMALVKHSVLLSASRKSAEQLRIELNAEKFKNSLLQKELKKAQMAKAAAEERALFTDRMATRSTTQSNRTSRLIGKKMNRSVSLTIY
T1 sequence (Q96SW2 whole entry): as the sequence (Q96SW2 whole entry) above
T1 sequence (Q16531 whole entry partner): as the sequence (Q16531 whole entry partner) above
T5 sequence (P48729 whole entry): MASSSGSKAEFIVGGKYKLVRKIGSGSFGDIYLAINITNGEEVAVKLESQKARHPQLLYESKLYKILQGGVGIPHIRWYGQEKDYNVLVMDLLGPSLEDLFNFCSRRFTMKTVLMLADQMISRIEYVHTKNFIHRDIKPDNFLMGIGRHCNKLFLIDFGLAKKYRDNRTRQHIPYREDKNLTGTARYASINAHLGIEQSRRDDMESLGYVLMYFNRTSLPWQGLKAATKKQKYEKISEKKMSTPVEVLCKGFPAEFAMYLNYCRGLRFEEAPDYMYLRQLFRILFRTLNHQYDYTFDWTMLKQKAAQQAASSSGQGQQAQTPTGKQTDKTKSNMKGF
T5 sequence (Q96SW2 whole entry): as the sequence (Q96SW2 whole entry) above
T5 sequence (Q16531 whole entry partner): as the sequence (Q16531 whole entry partner) above

With `O=C1CCC(N2C(=O)c3ccc(CN4CCN(c5ccncc5)CC4)cc3C2=O)C(=O)N1` (stereo not drawn) [GT-06553, 2-(2,6-dioxopiperidin-3-yl)-5-((4-(pyridin-4-yl)piperazin-1-yl)methyl)isoindoline-1,3-dione] the “Weel substrate protein remaining %” value (WEE1) was “B (80%< substrate protein remaining %≤ 100%)”, the “IKZF 1 substrate protein remaining %” value (IKZF1) was “B (80%< substrate protein remaining %≤ 100%)” and the “IKZF2 substrate protein remaining %” value (IKZF2) was “A (0% ≤ substrate protein remaining % ≤ 80%)”. The “IKZF3 substrate protein remaining %” value (IKZF3) was “B (80%< substrate protein remaining %≤ 100%)”, the “CK1a substrate protein remaining %” value (CK1α) was “B (80%< substrate protein remaining %≤ 100%)” and the “GSPT1 substrate protein remaining %” value (GSPT1) was “A (0% ≤ substrate protein remaining % ≤ 80%)”.

For `Cc1cc(N2CCN(Cc3ccc4c(c3)C(=O)N(C3CCC(=O)NC3=O)C4=O)CC2)ccn1` (stereo not drawn) [GT-06554, 2-(2,6-dioxopiperidin-3-yl)-5-((4-(2-methylpyridin-4-yl)piperazin-1-yl)methyl)isoindoline-1,3-dione], the “Weel substrate protein remaining %” value (WEE1) was “B (80%< substrate protein remaining %≤ 100%)”, the “IKZF 1 substrate protein remaining %” value (IKZF1) was “B (80%< substrate protein remaining %≤ 100%)” and the “IKZF2 substrate protein remaining %” value (IKZF2) was “A (0% ≤ substrate protein remaining % ≤ 80%)”. The “IKZF3 substrate protein remaining %” value (IKZF3) was “B (80%< substrate protein remaining %≤ 100%)”, the “CK1a substrate protein remaining %” value (CK1α) was “B (80%< substrate protein remaining %≤ 100%)” and the “GSPT1 substrate protein remaining %” value (GSPT1) was “A (0% ≤ substrate protein remaining % ≤ 80%)”.

`O=C1CCC(N2C(=O)c3ccc(CN4CCN(c5nccc(F)c5F)CC4)cc3C2=O)C(=O)N1` (stereo not drawn) [GT-06555, 5-((4-(3,4-difluoropyridin-2-yl)piperazin-1-yl)methyl)-2-(2,6-dioxopiperidin-3-yl)isoindoline-1,3-dione] was tested, and the “Weel substrate protein remaining %” value (WEE1) was “B (80%< substrate protein remaining %≤ 100%)”, the “IKZF 1 substrate protein remaining %” value (IKZF1) was “B (80%< substrate protein remaining %≤ 100%)” and the “IKZF2 substrate protein remaining %” value (IKZF2) was “A (0% ≤ substrate protein remaining % ≤ 80%)”. For the same compound, the “IKZF3 substrate protein remaining %” value (IKZF3) was “B (80%< substrate protein remaining %≤ 100%)”, the “CK1a substrate protein remaining %” value (CK1α) was “B (80%< substrate protein remaining %≤ 100%)” and the “GSPT1 substrate protein remaining %” value (GSPT1) was “A (0% ≤ substrate protein remaining % ≤ 80%)”.

`O=C1CCC(N2C(=O)c3ccc(CN4CCN(c5ccncc5Br)CC4)cc3C2=O)C(=O)N1` (stereo not drawn) [GT-06556, 5-((4-(3-bromopyridin-4-yl)piperazin-1-yl)methyl)-2-(2,6-dioxopiperidin-3-yl)isoindoline-1,3-dione] was tested, and the “Weel substrate protein remaining %” value (WEE1) was “B (80%< substrate protein remaining %≤ 100%)”, the “IKZF 1 substrate protein remaining %” value (IKZF1) was “B (80%< substrate protein remaining %≤ 100%)” and the “IKZF2 substrate protein remaining %” value (IKZF2) was “A (0% ≤ substrate protein remaining % ≤ 80%)”. The “IKZF3 substrate protein remaining %” value (IKZF3) was “B (80%< substrate protein remaining %≤ 100%)”, the “CK1a substrate protein remaining %” value (CK1α) was “B (80%< substrate protein remaining %≤ 100%)” and the “GSPT1 substrate protein remaining %” value (GSPT1) was “A (0% ≤ substrate protein remaining % ≤ 80%)”.

For `O=C1CCC(N2C(=O)c3ccc(CN4CCC(c5ncnc6sccc56)CC4)cc3C2=O)C(=O)N1` (stereo not drawn) [GT-06591, 2-(2,6-dioxopiperidin-3-yl)-5-((4-(thieno[2,3-d]pyrimidin-4-yl)piperidin-1-yl)methyl)isoindoline-1,3-dione], the “Weel substrate protein remaining %” value (WEE1) was “A (0% ≤ substrate protein remaining % ≤ 80%)”, the “IKZF 1 substrate protein remaining %” value (IKZF1) was “B (80%< substrate protein remaining %≤ 100%)” and the “IKZF2 substrate protein remaining %” value (IKZF2) was “B (80%< substrate protein remaining %≤ 100%)”. For the same compound, the “IKZF3 substrate protein remaining %” value (IKZF3) was “B (80%< substrate protein remaining %≤ 100%)”, the “CK1a substrate protein remaining %” value (CK1α) was “B (80%< substrate protein remaining %≤ 100%)” and the “GSPT1 substrate protein remaining %” value (GSPT1) was “A (0% ≤ substrate protein remaining % ≤ 80%)”.

With `Cc1cc2c(C3CCN(Cc4ccc5c(c4)C(=O)N(C4CCC(=O)NC4=O)C5=O)CC3)ncnc2s1` (stereo not drawn) [GT-06592, 2-(2,6-dioxopiperidin-3-yl)-5-((4-(6-methylthieno[2,3-d]pyrimidin-4-yl)piperidin-1-yl)methyl)isoindoline-1,3-dione] the “Weel substrate protein remaining %” value (WEE1) was “A (0% ≤ substrate protein remaining % ≤ 80%)”, the “IKZF 1 substrate protein remaining %” value (IKZF1) was “A (0% ≤ substrate protein remaining % ≤ 80%)” and the “IKZF2 substrate protein remaining %” value (IKZF2) was “A (0% ≤ substrate protein remaining % ≤ 80%)”. For the same compound, the “IKZF3 substrate protein remaining %” value (IKZF3) was “A (0% ≤ substrate protein remaining % ≤ 80%)”, the “CK1a substrate protein remaining %” value (CK1α) was “B (80%< substrate protein remaining %≤ 100%)” and the “GSPT1 substrate protein remaining %” value (GSPT1) was “A (0% ≤ substrate protein remaining % ≤ 80%)”.

In the case of `O=C1CCC(N2C(=O)c3ccc(CN4CCC(c5ncnc6sc(-c7ccccc7)cc56)CC4)cc3C2=O)C(=O)N1` (stereo not drawn) [GT-06594, 2-(2,6-dioxopiperidin-3-yl)-5-((4-(6-phenylthieno[2,3-d]pyrimidin-4-yl)piperidin-1-yl)methyl)isoindoline-1,3-dione], the “Weel substrate protein remaining %” value (WEE1) is reported as “A (0% ≤ substrate protein remaining % ≤ 80%)”, the “IKZF 1 substrate protein remaining %” value (IKZF1) is reported as “A (0% ≤ substrate protein remaining % ≤ 80%)” and the “IKZF2 substrate protein remaining %” value (IKZF2) is reported as “A (0% ≤ substrate protein remaining % ≤ 80%)”. For the same compound, the “IKZF3 substrate protein remaining %” value (IKZF3) was “A (0% ≤ substrate protein remaining % ≤ 80%)”, the “CK1a substrate protein remaining %” value (CK1α) was “B (80%< substrate protein remaining %≤ 100%)” and the “GSPT1 substrate protein remaining %” value (GSPT1) was “A (0% ≤ substrate protein remaining % ≤ 80%)”.

In the case of `O=C1CCC(N2C(=O)c3ccc(CN4CCN(c5c(Cl)cncc5Br)CC4)cc3C2=O)C(=O)N1` (stereo not drawn) [GT-06599, 5-((4-(3-bromo-5-chloropyridin-4-yl)piperazin-1-yl)methyl)-2-(2,6-dioxopiperidin-3-yl)isoindoline-1,3-dione], the “Weel substrate protein remaining %” value (WEE1) is reported as “B (80%< substrate protein remaining %≤ 100%)”, the “IKZF 1 substrate protein remaining %” value (IKZF1) is reported as “B (80%< substrate protein remaining %≤ 100%)” and the “IKZF2 substrate protein remaining %” value (IKZF2) is reported as “B (80%< substrate protein remaining %≤ 100%)”. The “IKZF3 substrate protein remaining %” value (IKZF3) was “B (80%< substrate protein remaining %≤ 100%)”, the “CK1a substrate protein remaining %” value (CK1α) was “B (80%< substrate protein remaining %≤ 100%)” and the “GSPT1 substrate protein remaining %” value (GSPT1) was “A (0% ≤ substrate protein remaining % ≤ 80%)”.

With `O=C1CCC(N2C(=O)c3ccc(CN4CCN(c5c(F)cncc5Cl)CC4)cc3C2=O)C(=O)N1` (stereo not drawn) [GT-06600, 5-((4-(3-chloro-5-fluoropyridin-4-yl)piperazin-1-yl)methyl)-2-(2,6-dioxopiperidin-3-yl)isoindoline-1,3-dione] the “Weel substrate protein remaining %” value (WEE1) was “B (80%< substrate protein remaining %≤ 100%)”, the “IKZF 1 substrate protein remaining %” value (IKZF1) was “B (80%< substrate protein remaining %≤ 100%)” and the “IKZF2 substrate protein remaining %” value (IKZF2) was “B (80%< substrate protein remaining %≤ 100%)”. The “IKZF3 substrate protein remaining %” value (IKZF3) was “B (80%< substrate protein remaining %≤ 100%)”, the “CK1a substrate protein remaining %” value (CK1α) was “B (80%< substrate protein remaining %≤ 100%)” and the “GSPT1 substrate protein remaining %” value (GSPT1) was “A (0% ≤ substrate protein remaining % ≤ 80%)”.

For `O=C1CCC(N2C(=O)c3ccc(CN4CCC(c5nccc(Cl)c5Cl)CC4)cc3C2=O)C(=O)N1` (stereo not drawn) [GT-06607, 5-((4-(3,4-dichloropyridin-2-yl)piperidin-1-yl)methyl)-2-(2,6-dioxopiperidin-3-yl)isoindoline-1,3-dione], the “Weel substrate protein remaining %” value (WEE1) was “B (80%< substrate protein remaining %≤ 100%)”, the “IKZF 1 substrate protein remaining %” value (IKZF1) was “B (80%< substrate protein remaining %≤ 100%)” and the “IKZF2 substrate protein remaining %” value (IKZF2) was “B (80%< substrate protein remaining %≤ 100%)”. For the same compound, the “IKZF3 substrate protein remaining %” value (IKZF3) was “B (80%< substrate protein remaining %≤ 100%)”, the “CK1a substrate protein remaining %” value (CK1α) was “B (80%< substrate protein remaining %≤ 100%)” and the “GSPT1 substrate protein remaining %” value (GSPT1) was “A (0% ≤ substrate protein remaining % ≤ 80%)”.

For `O=C1CCC(N2C(=O)c3ccc(CN4CCC(c5ccnc(F)c5F)CC4)cc3C2=O)C(=O)N1` (stereo not drawn) [GT-06613, 5-((4-(2,3-difluoropyridin-4-yl)piperidin-1-yl)methyl)-2-(2,6-dioxopiperidin-3-yl)isoindoline-1,3-dione], the “Weel substrate protein remaining %” value (WEE1) was “B (80%< substrate protein remaining %≤ 100%)”, the “IKZF 1 substrate protein remaining %” value (IKZF1) was “B (80%< substrate protein remaining %≤ 100%)” and the “IKZF2 substrate protein remaining %” value (IKZF2) was “B (80%< substrate protein remaining %≤ 100%)”. For the same compound, the “IKZF3 substrate protein remaining %” value (IKZF3) was “B (80%< substrate protein remaining %≤ 100%)”, the “CK1a substrate protein remaining %” value (CK1α) was “B (80%< substrate protein remaining %≤ 100%)” and the “GSPT1 substrate protein remaining %” value (GSPT1) was “A (0% ≤ substrate protein remaining % ≤ 80%)”.

For `O=C1CCC(N2C(=O)c3ccc(CN4CCC(c5ccnc(Cl)c5Cl)CC4)cc3C2=O)C(=O)N1` (stereo not drawn) [GT-06615, 5-((4-(2,3-dichloropyridin-4-yl)piperidin-1-yl)methyl)-2-(2,6-dioxopiperidin-3-yl)isoindoline-1,3-dione], the “Weel substrate protein remaining %” value (WEE1) was “A (0% ≤ substrate protein remaining % ≤ 80%)”, the “IKZF 1 substrate protein remaining %” value (IKZF1) was “B (80%< substrate protein remaining %≤ 100%)” and the “IKZF2 substrate protein remaining %” value (IKZF2) was “B (80%< substrate protein remaining %≤ 100%)”. For the same compound, the “IKZF3 substrate protein remaining %” value (IKZF3) was “A (0% ≤ substrate protein remaining % ≤ 80%)”, the “CK1a substrate protein remaining %” value (CK1α) was “A (0% ≤ substrate protein remaining % ≤ 80%)” and the “GSPT1 substrate protein remaining %” value (GSPT1) was “A (0% ≤ substrate protein remaining % ≤ 80%)”.

With `O=C1CCC(N2C(=O)c3ccc(CN4CCN(c5ccnc(Cl)c5)CC4)cc3C2=O)C(=O)N1` (stereo not drawn) [GT-06619, 5-((4-(2-chloropyridin-4-yl)piperazin-1-yl)methyl)-2-(2,6-dioxopiperidin-3-yl)isoindoline-1,3-dione] the “Weel substrate protein remaining %” value (WEE1) was “B (80%< substrate protein remaining %≤ 100%)”, the “IKZF 1 substrate protein remaining %” value (IKZF1) was “B (80%< substrate protein remaining %≤ 100%)” and the “IKZF2 substrate protein remaining %” value (IKZF2) was “B (80%< substrate protein remaining %≤ 100%)”. The “IKZF3 substrate protein remaining %” value (IKZF3) was “A (0% ≤ substrate protein remaining % ≤ 80%)”, the “CK1a substrate protein remaining %” value (CK1α) was “B (80%< substrate protein remaining %≤ 100%)” and the “GSPT1 substrate protein remaining %” value (GSPT1) was “A (0% ≤ substrate protein remaining % ≤ 80%)”.
